# Test results from US20090232786A1, “HERBAL COMPOSITION FOR CANCER TREATMENT” (priority 2001, published 2009).
# Columns and labels:
# [1] = system: Prostaglandin E2 (PGE2) production in a mouse 3T3 fibroblast cell line; assay: Anti-inflammatory assay: secreted PGE2 from stimulated 3T3 fibroblasts; type: cell-based; details: 3T3 cells, 500 μM, dilution 500
# Text: This assay was run to determine the effectiveness of the herbal formula to inhibit Prostaglandin E2 (PGE2) production in a mouse 3T3 fibroblast cell line.
# The anti-inflammatory assay measures the level of PGE2 in stimulated mouse fibroblast 3T3 cell line after treatment with the herbal formula. The use of a stimulated cell line rather than using isolated enzyme systems gives more useful data.
# PGE2 is formed in a variety of cells from PGH2, which itself is synthesized from arachiodonic acid by the enzyme prostaglandin synthetase. The assay measures secreted levels of PGE2 from the supernatant of the fibroblast cells.
# serum PSA = assay: Patient case studies: serum PSA; type: in vivo, human; details: Example 11; Casodex 50 mg once daily for three months; PSA before 41
# Protocol: Serum PSA was measured to be 300. This patient then started hormone therapy including an oral administration of 100 mg of Androcur (Cyproterone Acetate) 3 times per day, and a subcutaneous injection of 3.6 mg of Zolodex (Goserelin Acetate Implant) once per three months. The prostate has been monitored since with serum PSA levels, varying between “28-62”.
# In May 2001, the PSA level was measured to be 41. At that time, the patient stopped taking Androcur and Zolodex, and started to take Casodex 50 mg once daily. The treatment with Casodex continued for three months and follow-up blood tests indicated a serum PSA of 5.7.
# From August 2001, this patient started to combine Casodex with an oral administration of the herbal formula of the present invention. The intake dosage of the herbal formula was 2070 mg per day. This combination treatment continued for two months.
# From October 2001, the dosage of this herb formula was increased to 2760 mg per day. Following PSA level measurement was 2.3 in November 2001.
# The patient in this case study was a person. […] The PSA was measured to be 21.
# The prostate has been monitored approximately every 6 months. As the PSA reading was between “13-17” on occasions, when readings were high, antibiotics were prescribed for prostatitis. The PSA was measured to be 18.7 at August of 2001. […]
# LNCap cell lines = assay: LNCap cell cycle assay; type: cell-based; details: positive control (FIG. 7)
# Protocol: A anti-cancer activity assay was conducted with the results presented in Table 3 wherein the herb formula represents a combination according to the present invention. LNCap is an androgen-dependent prostate cancer cell line.
# PC-3 cell lines = assay: PC3 cell cycle analysis by flow cytometry of propidium iodide stained cells; type: cell-based; details: PC-3, paclitaxol 10 ng/mL (FIG. 3)
# Protocol: Cell cycle analysis was carried out using tablets/capsules of the present invention. The formulation was tested as a single tablet/capsule concentration in triplicate and as a two capsule concentration also in triplicate.
# Tablets/capsules were weighed, crushed and extracted with 10 ml of methanol. The extracts were sonicated for 40 mins and then spun down at 4000 rpm. The supernatant was removed and 100 μL of this extract was used in the cell cycle analysis. A further aliquot of this extract was subjected to HPLC-MS analysis as described in Example 3 below. Cells were split into 16×25 cm^2 flasks at a low concentration and allowed to grow to 65-70% confluence (at the time of addition the cells were in log phase). Flasks were incubated for 24 hours and control flasks of control media (no additions), an ethanol (100 μL EtOH), a control methanol (100 μL MeOH) and paclitaxol (10 μL of 0.01 mg/mL=10 ng/mL) were also run.
# Flow cytometry was performed on the fixed cells after washing in PBS and stained using propidium iodide (2% PI in 0.1% Triton X-100 containing 2 mg/mL Rnase A). A Becton Dickson FACSCaliber was used to assay the cells.
# HL60 cell lines = assay: HL60 cell cycle assay; type: cell-based, human; details: HL60, positive control (FIG. 10)
# Protocol: The bioactivity of the herb formula was assessed using HL60 cell lines. HL60 is a human promyelocytic leukemia cell line.
# [2] = molecular target: T1, estrogen (E2) binding site on MCF-7 cell lines (Homo sapiens, UniProt P03372); assay: Estrogen binding assay, 3H 17-β-estradiol displacement; details: MCF-7, 197 μM, 1 nM 3H E2, 3 hours
# T1 construct: endogenous in cells; host or cells: MCF-7 breast cancer cells
# T1 sequence (P03372 1-595): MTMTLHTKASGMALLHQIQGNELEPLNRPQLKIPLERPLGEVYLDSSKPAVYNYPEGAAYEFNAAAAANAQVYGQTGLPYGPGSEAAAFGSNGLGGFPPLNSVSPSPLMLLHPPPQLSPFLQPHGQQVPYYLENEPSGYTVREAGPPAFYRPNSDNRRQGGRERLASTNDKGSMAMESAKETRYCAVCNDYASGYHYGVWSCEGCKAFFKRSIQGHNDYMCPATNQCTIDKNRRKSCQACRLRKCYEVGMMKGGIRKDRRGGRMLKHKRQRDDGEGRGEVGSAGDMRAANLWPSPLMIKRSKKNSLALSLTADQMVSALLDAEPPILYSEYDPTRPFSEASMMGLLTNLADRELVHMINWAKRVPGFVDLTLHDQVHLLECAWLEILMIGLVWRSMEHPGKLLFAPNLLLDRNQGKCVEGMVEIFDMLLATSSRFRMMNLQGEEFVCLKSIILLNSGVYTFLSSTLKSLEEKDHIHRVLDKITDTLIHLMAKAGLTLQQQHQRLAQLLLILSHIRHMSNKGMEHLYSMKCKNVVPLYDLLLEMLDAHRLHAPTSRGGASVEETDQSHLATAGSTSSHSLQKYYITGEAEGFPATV
# Protocol: The estrogen binding capacity of the herbal formula was investigated by assay. This assay was developed and run to determine if the herbal extracts that constitute the herbal formula have any binding activity towards the estrogen (E2) binding site on MCF-7 cell lines. The MCF-7 is a breast cancer cell line and was chosen because of the ability to express E2 binding sites.
# ^3H 17-β-estradiol (E2) was used at a final concentration in the wells of 1 nM in media. Samples were incubated for 3 hours after which the wells were aspirated and washed 3 times with warm PBS. Cell bound radioactivity was extracted with 300 μL EtOH which was added to each well and left to lyse for 20 min at room temperature. An aliquot was removed for counting, transferred to a counting plate and scintillant added and the plate counted in a Perkin Elmer MicroBeta.
smiles,measurement,setting,value
CC(=O)Oc1ccccc1C(=O)O [Aspirin],% Control (secreted PGE2),[1],14.2%
CC(O)(CS(=O)(=O)c1ccc(F)cc1)C(=O)Nc1ccc(C#N)c(C(F)(F)F)c1 (centres unmarked) [Casodex],serum PSA,serum PSA,5.7
CC(=O)O[C@H]1C(=O)[C@@]2(C)[C@H]([C@H](OC(=O)c3ccccc3)[C@]3(O)C[C@H](OC(=O)[C@H](O)[C@@H](NC(=O)c4ccccc4)c4ccccc4)C(C)=C1C3(C)C)[C@]1(OC(C)=O)CO[C@@H]1C[C@@H]2O [Paclitaxol],effect on the cell cycle,LNCap cell lines,arresting of cells in G2-M
same,cells in the G0-G1 phase,PC-3 cell lines,1.16%
same,cells in the G2-M phase,PC-3 cell lines,71.89%
same,cells in the S phase,PC-3 cell lines,26.95%
same,effect on the cell cycle,HL60 cell lines,arrest the cells in the G2-M stage
O=c1c(-c2ccc(O)cc2)coc2cc(O)ccc12 [diadzein],displacement of 3H E2 from the E2 receptor,[2],> 60%
